Assay results reported in patent US20230085307A1, “PYRIDAZINONE COMPOUND AND HERBICIDE” (NISSAN CHEMICAL CORPORATION, priority 2019, published 2023).

How the values were obtained:
chickweed = assay: Test Example 4: herbicidal effect by soil treatment (Table 19, symbol P); format: in vivo, common chickweed (Stellaria media); details: amount of applied herbicide 320 g/ha
Procedure, shortened: (§1)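 In this soil treatment, the formulated compound reached the seeds only through the soil: seeds were buried about 1.5 cm deep in sterilized diluvial soil, then the diluted emulsion was sprayed over the surface. After three weeks at 25° C. to 30° C. in a greenhouse, effects were graded on criteria from an earlier test.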

velvetleaf [1] = assay: Test Example 4: herbicidal effect by soil treatment (Table 19, symbol M); format: in vivo, velvetleaf (Abutilon theophrasti); details: amount of applied herbicide 320 g/ha
Procedure, shortened: as §1

persian speedwell [2] = assay: Test Example 4: herbicidal effect by soil treatment (Table 19, symbol R); format: in vivo, Persian speedwell (Veronica persica); details: amount of applied herbicide 320 g/ha
Procedure, shortened: as §1

blackgrass [3] = assay: Test Example 5: herbicidal effect by foliage application, plastic box (Table 20, symbol J); format: in vivo, blackgrass (Alopecurus myosuroides); details: foliage application, 320 g/ha, three weeks after application
Procedure, shortened: (§2)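 Plants were sown into sterilized diluvial soil under about 1.5 cm cover and kept in a greenhouse at 25° C. to 30° C. Fourteen days on, foliage received an even spray of the diluted emulsion. Herbicidal or crop effect was judged three weeks afterwards.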

rice flat sedge = assay: Test Example 3: herbicidal effect by foliage application, Wagner pot (Table 18, symbol E); format: in vivo, rice flat sedge (Cyperus iria); details: amount of applied herbicide 320 g/ha
Procedure, shortened: (§3)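 Plants were sown in alluvial soil held under 0.1–0.5 cm standing water and grown 14 days in a greenhouse at 25–30 °C. An emulsifiable formulation, water-diluted to the set dose, was then sprayed onto the foliage, and effects were scored three weeks later using previously defined criteria.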

persian speedwell [4] = assay: Test Example 5: herbicidal effect by foliage application, plastic box (Table 20, symbol R); format: in vivo, Persian speedwell (Veronica persica); details: foliage application, 320 g/ha, three weeks after application
Procedure, shortened: as §2

barnyard grass [5] = assay: Test Example 3: herbicidal effect by foliage application, Wagner pot (Table 18, symbol H); format: in vivo, barnyard grass (Echinochloa crus-galli); details: amount of applied herbicide 320 g/ha
Procedure, shortened: as §3

Italian ryegrass [6] = assay: Test Example 4: herbicidal effect by soil treatment (Table 19, symbol K); format: in vivo, Italian ryegrass (Lolium multiflorum); details: amount of applied herbicide 320 g/ha
Procedure, shortened: as §1

green foxtail [7] = assay: Test Example 5: herbicidal effect by foliage application, plastic box (Table 20, symbol G); format: in vivo, green foxtail (Setaria viridis); details: foliage application, 320 g/ha, three weeks after application
Procedure, shortened: as §2

green foxtail [8] = assay: Test Example 4: herbicidal effect by soil treatment (Table 19, symbol G); format: in vivo, green foxtail (Setaria viridis); details: amount of applied herbicide 320 g/ha
Procedure, shortened: as §1

barnyard grass [9] = assay: Test Example 5: herbicidal effect by foliage application, plastic box (Table 20, symbol H); format: in vivo, barnyard grass (Echinochloa crus-galli); details: foliage application, 320 g/ha, three weeks after application
Procedure, shortened: as §2

wild oat [10] = assay: Test Example 4: herbicidal effect by soil treatment (Table 19, symbol I); format: in vivo, wild oat (Avena fatua); details: amount of applied herbicide 320 g/ha
Procedure, shortened: as §1

barnyard grass [11] = assay: Test Example 4: herbicidal effect by soil treatment (Table 19, symbol H); format: in vivo, barnyard grass (Echinochloa crus-galli); details: amount of applied herbicide 320 g/ha
Procedure, shortened: as §1

lambsquarters [12] = assay: Test Example 5: herbicidal effect by foliage application, plastic box (Table 20, symbol O); format: in vivo, lambsquarters (Chenopodium album); details: foliage application, 320 g/ha, three weeks after application
Procedure, shortened: as §2

false cleavers = assay: Test Example 4: herbicidal effect by soil treatment (Table 19, symbol Q); format: in vivo, false cleavers (Galium spurium); details: amount of applied herbicide 320 g/ha
Procedure, shortened: as §1

windgrass [13] = assay: Test Example 5: herbicidal effect by foliage application, plastic box (Table 20, symbol L); format: in vivo, windgrass (Apera spica-venti); details: foliage application, 320 g/ha, three weeks after application
Procedure, shortened: as §2

Chinese sprangletop = assay: Test Example 3: herbicidal effect by foliage application, Wagner pot (Table 18, symbol D); format: in vivo, chinese sprangletop (Leptochloa chinensis); details: amount of applied herbicide 320 g/ha
Procedure, shortened: as §3

wild oat [14] = assay: Test Example 5: herbicidal effect by foliage application, plastic box (Table 20, symbol I); format: in vivo, wild oat (Avena fatua); details: foliage application, 320 g/ha, three weeks after application
Procedure, shortened: as §2

southern crabgrass [15] = assay: Test Example 4: herbicidal effect by soil treatment (Table 19, symbol F); format: in vivo, southern crabgrass (Digitaria ciliaris); details: amount of applied herbicide 320 g/ha
Procedure, shortened: as §1

windgrass [16] = assay: Test Example 4: herbicidal effect by soil treatment (Table 19, symbol L); format: in vivo, windgrass (Apera spica-venti); details: amount of applied herbicide 320 g/ha
Procedure, shortened: as §1

Italian ryegrass [17] = assay: Test Example 5: herbicidal effect by foliage application, plastic box (Table 20, symbol K); format: in vivo, Italian ryegrass (Lolium multiflorum); details: foliage application, 320 g/ha, three weeks after application
Procedure, shortened: as §2

redroot pigweed = assay: Test Example 4: herbicidal effect by soil treatment (Table 19, symbol N); format: in vivo, redroot pigweed (Amaranthus retroflexus); details: amount of applied herbicide 320 g/ha
Procedure, shortened: as §1

lambsquarters [18] = assay: Test Example 4: herbicidal effect by soil treatment (Table 19, symbol O); format: in vivo, lambsquarters (Chenopodium album); details: amount of applied herbicide 320 g/ha
Procedure, shortened: as §1

velvetleaf [19] = assay: Test Example 5: herbicidal effect by foliage application, plastic box (Table 20, symbol M); format: in vivo, velvetleaf (Abutilon theophrasti); details: foliage application, 320 g/ha, three weeks after application
Procedure, shortened: as §2

blackgrass [20] = assay: Test Example 4: herbicidal effect by soil treatment (Table 19, symbol J); format: in vivo, blackgrass (Alopecurus myosuroides); details: amount of applied herbicide 320 g/ha
Procedure, shortened: as §1

southern crabgrass [21] = assay: Test Example 5: herbicidal effect by foliage application, plastic box (Table 20, symbol F); format: in vivo, southern crabgrass (Digitaria ciliaris); details: foliage application, 320 g/ha, three weeks after application
Procedure, shortened: as §2

For `Cc1nn(C)c(=O)c(-c2c(-c3ccc(F)cc3)oc3ccc(F)cc23)c1O` [9-014], the “P: chickweed, herbicidal effect grade” value (chickweed) was 5 (Herbicidal rate of 90% or more (almost completely withered)), the “M: velvetleaf, herbicidal effect grade” value (velvetleaf [1]) was 4 (Herbicidal rate of 70% or more and less than 90%) and the “R: persian speedwell, herbicidal effect grade” value (persian speedwell [2]) was 4 (Herbicidal rate of 70% or more and less than 90%). For the same molecule, the “herbicidal effect on blackgrass (J)” value (blackgrass [3]) was 4 (Herbicidal rate of 70% or more and less than 90%), the “Herbicidal effect on E (rice flat sedge), foliage application” value (rice flat sedge) was 5 (Herbicidal rate of 90% or more (almost completely withered)) and the “herbicidal effect on persian speedwell (R)” value (persian speedwell [4]) was 5 (Herbicidal rate of 90% or more (almost completely withered)). For the same molecule, the “Herbicidal effect on H (barnyard grass), foliage application” value (barnyard grass [5]) was 3 (Herbicidal rate of 40% or more and less than 70%), the “K: Italian ryegrass, herbicidal effect grade” value (Italian ryegrass [6]) was 5 (Herbicidal rate of 90% or more (almost completely withered)) and the “herbicidal effect on green foxtail (G)” value (green foxtail [7]) was 4 (Herbicidal rate of 70% or more and less than 90%). For the same molecule, the “G: green foxtail, herbicidal effect grade” value (green foxtail [8]) was 5 (Herbicidal rate of 90% or more (almost completely withered)), the “herbicidal effect on barnyard grass (H)” value (barnyard grass [9]) was 4 (Herbicidal rate of 70% or more and less than 90%) and the “I: wild oat, herbicidal effect grade” value (wild oat [10]) was 1 (Herbicidal rate of 5% or more and less than 20%). For the same molecule, the “H: barnyard grass, herbicidal effect grade” value (barnyard grass [11]) was 4 (Herbicidal rate of 70% or more and less than 90%), the “herbicidal effect on lambsquarters (O)” value (lambsquarters [12]) was 4 (Herbicidal rate of 70% or more and less than 90%) and the “Q: false cleavers, herbicidal effect grade” value (false cleavers) was 0 (Herbicidal rate of 5% or less (almost no effect)). The “herbicidal effect on windgrass (L)” value (windgrass [13]) was 4 (Herbicidal rate of 70% or more and less than 90%), the “Herbicidal effect on D (Chinese sprangletop), foliage application” value (Chinese sprangletop) was 3 (Herbicidal rate of 40% or more and less than 70%) and the “herbicidal effect on wild oat (I)” value (wild oat [14]) was 3 (Herbicidal rate of 40% or more and less than 70%). The “F: southern crabgrass, herbicidal effect grade” value (southern crabgrass [15]) was 4 (Herbicidal rate of 70% or more and less than 90%), the “L: windgrass, herbicidal effect grade” value (windgrass [16]) was 0 (Herbicidal rate of 5% or less (almost no effect)) and the “herbicidal effect on Italian ryegrass (K)” value (Italian ryegrass [17]) was 5 (Herbicidal rate of 90% or more (almost completely withered)). For the same molecule, the “N: redroot pigweed, herbicidal effect grade” value (redroot pigweed) was 5 (Herbicidal rate of 90% or more (almost completely withered)), the “O: lambsquarters, herbicidal effect grade” value (lambsquarters [18]) was 3 (Herbicidal rate of 40% or more and less than 70%) and the “herbicidal effect on velvetleaf (M)” value (velvetleaf [19]) was 3 (Herbicidal rate of 40% or more and less than 70%). The “J: blackgrass, herbicidal effect grade” value (blackgrass [20]) was 4 (Herbicidal rate of 70% or more and less than 90%) and the “herbicidal effect on southern crabgrass (F)” value (southern crabgrass [21]) was 2 (Herbicidal rate of 20% or more and less than 40%).
